Read-outs that look alike come from different tables or passages of the source.
What was measured:
JAK2 = JAK2 (Homo sapiens (Human), UniProt O60674); assay: Jak Biochemical HTRF Assay, JAK2; settings: HTRF biochemical assay, GST-tagged catalytic domain; top concentration tested […]
From the text: (§1) Jak Biochemical HTRF Assay Protocol
(§2) Subsequent reagent additions employed an Agilent Bravo.

JAK1 = JAK1 (Homo sapiens (Human), UniProt P23458); assay: Jak Biochemical HTRF Assay, JAK1
From the text: as §1, §2

[1] = HTRF biochemical assay, GST-tagged catalytic domain, top concentration tested […], read-out: JAK1 IC50

Chain of JAK1 (P23458 875-1153): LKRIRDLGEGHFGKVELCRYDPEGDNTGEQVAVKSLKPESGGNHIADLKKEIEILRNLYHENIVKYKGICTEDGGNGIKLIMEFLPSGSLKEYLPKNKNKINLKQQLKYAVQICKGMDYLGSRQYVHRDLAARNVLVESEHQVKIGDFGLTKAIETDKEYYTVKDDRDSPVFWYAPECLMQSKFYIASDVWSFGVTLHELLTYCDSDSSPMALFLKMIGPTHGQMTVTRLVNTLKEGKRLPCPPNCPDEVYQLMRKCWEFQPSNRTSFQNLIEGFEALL
Chain of JAK2 (O60674 849-1124): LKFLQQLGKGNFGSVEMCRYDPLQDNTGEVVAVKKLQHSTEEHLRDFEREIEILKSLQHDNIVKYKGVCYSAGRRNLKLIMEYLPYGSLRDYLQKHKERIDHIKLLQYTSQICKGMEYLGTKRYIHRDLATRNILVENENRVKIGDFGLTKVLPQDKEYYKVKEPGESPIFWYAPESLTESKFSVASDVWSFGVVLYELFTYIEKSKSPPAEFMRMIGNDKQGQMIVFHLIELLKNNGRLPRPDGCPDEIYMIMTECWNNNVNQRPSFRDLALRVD

Row | SMILES | IC50 (JAK2) | IC50 (JAK1; [1]) | IC50 (JAK1; JAK1 IC50)
1 | N#CCC1(n2cc(C(N)=O)c(Nc3ccc(F)cc3)n2)CCC(NCC(F)F)CC1 (stereo not drawn) [Example 40-77, Cis or trans 1-{1-(cyanomethyl)-4-[(2,2-difluoroethyl)amino]cyclohexyl}-3-[(4-fluorophenyl)amino]-1H-pyrazole-4-carboxamide] | 13 nM | 0.7 nM | 
2 | N#CCC1(n2cc(C(N)=O)c(Nc3ccc(F)cc3)n2)CCC(NCCF)CC1 (stereo not drawn) [Example 40-79, Cis or trans 1-{1-(cyanomethyl)-4-[(2-fluoroethyl)amino]cyclohexyl}-3-[(4-fluorophenyl)amino]-1H-pyrazole-4-carboxamide] | 133 nM | 8 nM | 
3 | N#CCC1(n2cc(C(N)=O)c(Nc3ccnc(F)c3)n2)CCC(N2CC(F)C2)CC1 (stereo not drawn) [Example 40-82, Cis or trans 1-[1-(cyanomethyl)-4-(3-fluoroazetidin-1-yl)cyclohexyl]-3-[(2-fluoropyridin-4-yl)amino]-1H-pyrazole-4-carboxamide] | 444 nM | 26 nM | 
4 | N#CCC1(n2cc(C(N)=O)c(Nc3ccnc(F)c3)n2)CCC(NCC(F)F)CC1 (stereo not drawn) [Example 40-87, Cis or trans 1-{1-(cyanomethyl)-4-[(2,2-difluoroethyl)amino]cyclohexyl}-3-[(2-fluoropyridin-4-yl)amino]-1H-pyrazole-4-carboxamide] | 524 nM | 13 nM | 
5 | N#CCC1(n2cc(C(N)=O)c(Nc3ccc(S(=O)(=O)C(F)F)cc3)n2)CCC(Nc2ccccc2)CC1 (stereo not drawn) [Example 40-88, Cis or trans 1-[1-(cyanomethyl)-4-(phenylamino)cyclohexyl]-3-({4-[(difluoromethyl)sulfonyl]phenyl}amino)-1H-pyrazole-4-carboxamide] | > 1500 nM | 200 nM | 
6 | N#CCC1(n2cc(C(N)=O)c(Nc3ccc(S(=O)(=O)C(F)F)cc3)n2)CCC(NCC(F)(F)F)CC1 (stereo not drawn) [Example 40-89, Cis or trans 1-{1-(cyanomethyl)-4-[(2,2,2-trifluoroethyl)amino]cyclohexyl}-3-({4-[(difluoromethyl)sulfonyl]phenyl}amino)-1H-pyrazole-4-carboxamide] | 466 nM | 13 nM | 
7 | N#CCC1(n2cc(C(N)=O)c(Nc3ccnc(F)c3)n2)CCC(NCC(F)(F)F)CC1 (stereo not drawn) [Example 40-93, Cis or trans 1-{1-(cyanomethyl)-4-[(2,2,2-trifluoroethyl)amino]cyclohexyl}-3-[(2-fluoropyridin-4-yl)amino]-1H-pyrazole-4-carboxamide] | > 1500 nM | 166 nM | 
8 | COC1CN(C2CCC(CC#N)(n3cc(C(N)=O)c(Nc4ccnc(F)c4)n3)CC2)C1 (stereo not drawn) [Example 40-94, Cis or trans 1-[1-(cyanomethyl)-4-(3-methoxyazetidin-1-yl)cyclohexyl]-3-[(2-fluoropyridin-4-yl)amino]-1H-pyrazole-4-carboxamide] | > 1500 nM | 234 nM | 
9 | N#CCC1(n2cc(C(N)=O)c(Nc3ccnc(F)c3)n2)CCC(NCC(F)(F)F)CC1 (stereo not drawn) [Example 40-95, Cis or trans 1-{1-(cyanomethyl)-4-[(2,2,2-trifluoroethyl)amino]cyclohexyl}-3-[(2-fluoropyridin-4-yl)amino]-1H-pyrazole-4-carboxamide] | 794 nM | 28 nM | 
10 | N#CCC1(n2cc(C(N)=O)c(Nc3ccc(S(=O)(=O)C(F)F)cc3)n2)CCC(NCC(F)F)CC1 (stereo not drawn) [Example 40-99, Cis or trans 1-{1-(cyanomethyl)-4-[(2,2-difluoroethyl)amino]cyclohexyl}-3-({4-[(difluoromethyl)sulfonyl]phenyl}amino)-1H-pyrazole-4-carboxamide] | > 1500 nM | 506 nM | 
11 | N#CCC1(n2cc(C(N)=O)c(Nc3ccnc(F)c3)n2)CCC(NCC(F)F)CC1 (stereo not drawn) [Example 40-106, Cis or trans 1-{1-(cyanomethyl)-4-[(2,2-difluoroethyl)amino]cyclohexyl}-3-[(2-fluoropyridin-4-yl)amino]-1H-pyrazole-4-carboxamide] | 31 nM |  | 4 nM
12 | N#CC[C@]1(n2cc(C(N)=O)c(Nc3ccc(S(=O)(=O)C(F)F)cc3)n2)CC[C@H](N)CC1 [Example 41-2] | > 1500 nM | 86 nM | 

Now from value to molecule, other results behind:

Row | IC50 (JAK2) | IC50 (JAK1; [1]) | SMILES | IC50 (JAK1; JAK1 IC50)
13 | 7 nM | 0.2 nM | N#CCC1(n2cc(C(N)=O)c(Nc3ccc(F)cc3)n2)CCC(Nc2cccnc2)CC1 (stereo not drawn) [Example 40-75, Cis or trans 1-[1-(cyanomethyl)-4-(pyridin-3-ylamino)cyclohexyl]-3-[(4-fluorophenyl)amino]-1H-pyrazole-4-carboxamide] | 
14 | 225 nM | 13 nM | CC(=O)N1CCN(C2CCC(CC#N)(n3cc(C(N)=O)c(Nc4ccc(F)cc4)n3)CC2)CC1 (stereo not drawn) [Example 40-76, Cis or trans 1-[4-(4-acetylpiperazin-1-yl)-1-(cyanomethyl)cyclohexyl]-3-[(4-fluorophenyl)amino]-1H-pyrazole-4-carboxamide] | 
15 | 325 nM | 14 nM | N#CCC1(n2cc(C(N)=O)c(Nc3ccc(F)cc3)n2)CCC(N2CCC2)CC1 (stereo not drawn) [Example 40-80, Cis or trans 1-[4-azetidin-1-yl-1-(cyanomethyl)cyclohexyl]-3-[(4-fluorophenyl)amino]-1H-pyrazole-4-carboxamide] | 
16 | 5 nM | 0.1 nM | COC1CN(C2CCC(CC#N)(n3cc(C(N)=O)c(Nc4ccnc(F)c4)n3)CC2)C1 (stereo not drawn) [Example 40-81, Cis or trans 1-[1-(cyanomethyl)-4-(3-methoxyazetidin-1-yl)cyclohexyl]-3-[(2-fluoropyridin-4-yl)amino]-1H-pyrazole-4-carboxamide] | 
17 | 3 nM | 0.04 nM | N#CCC1(n2cc(C(N)=O)c(Nc3ccc(S(=O)(=O)C(F)F)cc3)n2)CCC(NCC(F)F)CC1 (stereo not drawn) [Example 40-84, Cis or trans 1-{1-(cyanomethyl)-4-[(2,2-difluoroethyl)amino]cyclohexyl}-3-({4-[(difluoromethyl)sulfonyl]phenyl}amino)-1H-pyrazole-4-carboxamide] | 
18 | 0.2 nM | 0.02 nM | N#CCC1(n2cc(C(N)=O)c(Nc3ccc(S(=O)(=O)C(F)F)cc3)n2)CCC(NCC(F)(F)F)CC1 (stereo not drawn) [Example 40-85, Cis or trans 1-{1-(cyanomethyl)-4-[(2,2,2-trifluoroethyl)amino]cyclohexyl}-3-({4-[(difluoromethyl)sulfonyl]phenyl}amino)-1H-pyrazole-4-carboxamide] | 
19 | 84 nM | 9 nM | N#CCC1(n2cc(C(N)=O)c(Nc3ccc(F)cc3)n2)CCC(N2Cc3ccccc3C2)CC1 (stereo not drawn) [Example 40-90, Cis or trans 1-[1-(cyanomethyl)-4-(1,3-dihydro-2H-isoindol-2-yl)cyclohexyl]-3-[(4-fluorophenyl)amino]-1H-pyrazole-4-carboxamide] | 
20 | 0.2 nM | 0.04 nM | N#CCC1(n2cc(C(N)=O)c(Nc3ccc(F)cc3)n2)CCC(NCc2ccccc2)CC1 (stereo not drawn) [Example 40-92, Cis or trans 1-[4-(benzylamino)-1-(cyanomethyl)cyclohexyl]-3-[(4-fluorophenyl)amino]-1H-pyrazole-4-carboxamide] | 
21 | 2 nM | 0.09 nM | N#CCC1(n2cc(C(N)=O)c(Nc3ccc(F)cc3)n2)CCC(Nc2ccccc2)CC1 (stereo not drawn) [Example 40-96, Cis or trans 1-[1-(cyanomethyl)-4-(phenylamino)cyclohexyl]-3-[(4-fluorophenyl)amino]-1H-pyrazole-4-carboxamide] | 
22 | 216 nM | 18 nM | N#CCC1(n2cc(C(N)=O)c(Nc3ccc(F)cc3)n2)CCC(N2CC(F)C2)CC1 (stereo not drawn) [Example 40-100, Cis or trans 1-[1-(cyanomethyl)-4-(3-fluoroazetidin-1-yl)cyclohexyl]-3-[(4-fluorophenyl)amino]-1H-pyrazole-4-carboxamide] | 
23 | 1 nM | 0.05 nM | N#CCC1(n2cc(C(N)=O)c(Nc3ccc(S(=O)(=O)C(F)F)cc3)n2)CCC(Nc2ccccc2)CC1 (stereo not drawn) [Example 40-102, Cis or trans 1-[1-(cyanomethyl)-4-(phenylamino)cyclohexyl]-3-({4-[(difluoromethyl)sulfonyl]phenyl}amino)-1H-pyrazole-4-carboxamide] | 
24 | 3 nM | 0.1 nM | N#CCC1(n2cc(C(N)=O)c(Nc3ccc(F)cc3)n2)CCC(Nc2ccccc2)CC1 (stereo not drawn) [Example 40-103, Cis or trans 1-[1-(cyanomethyl)-4-(phenylamino)cyclohexyl]-3-[(4-fluorophenyl)amino]-1H-pyrazole-4-carboxamide] | 
25 | 11 nM | 0.2 nM | N#CCC1(n2cc(C(N)=O)c(Nc3ccnc(F)c3)n2)CCC(N2CC(F)C2)CC1 (stereo not drawn) [Example 40-104, Cis or trans 1-[1-(cyanomethyl)-4-(3-fluoroazetidin-1-yl)cyclohexyl]-3-[(2-fluoropyridin-4-yl)amino]-1H-pyrazole-4-carboxamide] | 
26 | 2 nM | 0.09 nM | N#CC[C@]1(n2cc(C(N)=O)c(Nc3ccc(F)cc3)n2)CC[C@@H](NCc2ccccc2)CC1 [Example 40-108, 1-[cis-4-(benzylamino)-1-(cyanomethyl)cyclohexyl]-3-[(4-fluorophenyl)amino]-1H-pyrazole-4-carboxamide] | 
27 | 218 nM | 8 nM | N#CC[C@]1(n2cc(C(N)=O)c(Nc3ccnc(F)c3)n2)CC[C@H](NCc2ccc(F)cc2F)CC1 [Example 41-1, Trans 1-(1-(cyanomethyl)-4-((2,4-difluorobenzyl)amino)cyclohexyl)-3-((2-fluoropyridin-4-yl)amino)-1H-pyrazole-4-carboxamide] | 
28 | 33 nM | 1 nM | N#CC[C@]1(n2cc(C(N)=O)c(Nc3ccc(S(=O)(=O)C(F)F)cc3)n2)CC[C@H](N)CC1 [Example 41-3] | 
29 | 2 nM | 0.09 nM | N#CCC1(n2cc(C(N)=O)c(Nc3ccnc(F)c3)n2)CCC(NCc2ccc(F)cc2F)CC1 (stereo not drawn) [Example 41-4, Cis or trans 1-{1-(cyanomethyl)-4-[(2,4-difluorobenzyl)amino]cyclohexyl}-3-[(2-fluoropyridin-4-yl)amino]-1H-pyrazole-4-carboxamide] | 
